What was measured:
PKA = PKA (Homo sapiens, UniProt P17612); assay: PKA inhibition, ADP-Glo Kinase Assay
[1] = tested on: cardiomyocytes isolated from adult mice; assay: Contractility in mouse cardiomyocytes; conditions: for potency at stimulating cardiomyocyte contraction: compared with lead 2, isoproterenol stimulation
GRK2 = target: T1, GRK2 (Bos taurus, UniProt P21146, S670A, species not given); assay: GRK2 kinase inhibition; assay type: biochemical
T1 sequence (P21146 1-689 S670A): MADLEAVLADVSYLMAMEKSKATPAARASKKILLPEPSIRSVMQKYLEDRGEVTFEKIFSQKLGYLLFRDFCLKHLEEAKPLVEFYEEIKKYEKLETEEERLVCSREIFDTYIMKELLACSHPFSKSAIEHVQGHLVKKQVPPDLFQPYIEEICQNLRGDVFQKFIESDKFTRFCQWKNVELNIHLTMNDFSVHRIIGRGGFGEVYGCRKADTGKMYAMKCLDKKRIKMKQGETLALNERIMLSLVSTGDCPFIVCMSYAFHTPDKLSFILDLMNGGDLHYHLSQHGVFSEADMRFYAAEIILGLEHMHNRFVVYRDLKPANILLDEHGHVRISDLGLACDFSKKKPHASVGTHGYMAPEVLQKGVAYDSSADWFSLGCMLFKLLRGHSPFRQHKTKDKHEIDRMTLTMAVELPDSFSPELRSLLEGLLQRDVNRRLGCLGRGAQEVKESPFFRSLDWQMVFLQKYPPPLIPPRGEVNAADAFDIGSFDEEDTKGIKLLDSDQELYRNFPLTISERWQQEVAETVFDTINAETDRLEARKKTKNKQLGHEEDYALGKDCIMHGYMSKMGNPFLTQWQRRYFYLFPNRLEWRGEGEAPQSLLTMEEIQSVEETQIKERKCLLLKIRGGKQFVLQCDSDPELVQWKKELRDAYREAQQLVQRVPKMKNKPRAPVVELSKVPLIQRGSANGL

ROCK1 = ROCK1 (Homo sapiens, UniProt Q13464); assay: ROCK1 inhibition, ADP-Glo Kinase Assay
ROCK1, sequence (Q13464 whole entry, species assumed): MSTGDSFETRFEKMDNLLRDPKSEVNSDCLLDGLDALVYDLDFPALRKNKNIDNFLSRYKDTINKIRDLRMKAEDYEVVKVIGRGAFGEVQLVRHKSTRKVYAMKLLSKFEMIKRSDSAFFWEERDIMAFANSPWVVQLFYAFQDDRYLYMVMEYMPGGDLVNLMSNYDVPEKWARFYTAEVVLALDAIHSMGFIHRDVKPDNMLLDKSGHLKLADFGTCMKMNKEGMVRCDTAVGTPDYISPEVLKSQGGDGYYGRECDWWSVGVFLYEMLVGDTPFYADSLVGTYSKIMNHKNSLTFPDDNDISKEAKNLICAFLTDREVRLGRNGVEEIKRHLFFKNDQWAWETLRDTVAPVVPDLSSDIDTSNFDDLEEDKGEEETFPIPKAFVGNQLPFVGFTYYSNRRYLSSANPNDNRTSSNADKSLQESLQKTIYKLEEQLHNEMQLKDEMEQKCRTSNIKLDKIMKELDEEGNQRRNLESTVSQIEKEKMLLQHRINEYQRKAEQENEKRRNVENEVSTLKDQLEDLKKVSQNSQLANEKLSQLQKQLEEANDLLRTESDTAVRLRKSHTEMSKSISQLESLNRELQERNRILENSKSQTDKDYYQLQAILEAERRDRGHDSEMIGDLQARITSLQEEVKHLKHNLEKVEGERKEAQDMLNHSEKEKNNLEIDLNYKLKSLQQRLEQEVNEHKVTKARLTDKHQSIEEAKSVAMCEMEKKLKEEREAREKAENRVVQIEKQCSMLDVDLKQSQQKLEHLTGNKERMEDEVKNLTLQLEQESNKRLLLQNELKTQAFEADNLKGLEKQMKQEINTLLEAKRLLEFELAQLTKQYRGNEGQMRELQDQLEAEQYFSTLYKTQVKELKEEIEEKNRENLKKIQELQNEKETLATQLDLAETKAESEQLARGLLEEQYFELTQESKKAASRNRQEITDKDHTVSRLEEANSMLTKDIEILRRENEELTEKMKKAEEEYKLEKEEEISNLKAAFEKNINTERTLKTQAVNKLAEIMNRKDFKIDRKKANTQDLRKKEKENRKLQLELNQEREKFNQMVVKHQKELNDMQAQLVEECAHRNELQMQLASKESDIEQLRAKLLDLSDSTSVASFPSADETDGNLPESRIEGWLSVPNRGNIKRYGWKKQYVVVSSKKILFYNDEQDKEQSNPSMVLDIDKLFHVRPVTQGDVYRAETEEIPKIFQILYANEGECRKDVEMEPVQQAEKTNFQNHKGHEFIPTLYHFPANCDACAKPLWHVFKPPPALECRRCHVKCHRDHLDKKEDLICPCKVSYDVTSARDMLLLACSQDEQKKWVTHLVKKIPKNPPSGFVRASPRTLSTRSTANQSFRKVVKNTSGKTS

Row | Compound | IC50 (PKA) | also measured
1 | CC1=C(C(=O)Nc2ccc3[nH]ncc3c2)C(c2ccc(F)c(CC(=O)NCc3c(C)cccc3C)c2)NC(=O)N1 (stereo not shown) [Compound 13a, 4-(3-(2-((2,6-Dimethylbenzyl)amino)-2-oxoethyl)-4-fluorophenyl)-N-(1H-indazol-5-yl)-6-methyl-2-oxo-1,2,3,4-tetrahydropyrimidine-5-carboxamide] | > 100 µM | 
2 | CC1=C(C(=O)Nc2ccc3[nH]ncc3c2)C(c2ccc(F)c(CC(=O)NCc3c(C(F)(F)F)cccc3C(F)(F)F)c2)NC(=O)N1 (stereo not shown) [Compound 13b, 4-(3-(2-((2,6-Bis(trifluoromethyl)benzyl)amino)-2-oxoethyl)-4-fluorophenyl)-N-(1H-indazol-5-yl)-6-methyl-2-oxo-1,2,3,4-tetrahydropyrimidine-5-carboxamide] | > 100 µM | 
3 | CC1=C(C(=O)Nc2ccc3[nH]ncc3c2)C(c2ccc(F)c(C(=O)NCc3c(F)cccc3F)c2)NC(=O)N1 (stereo not shown) [Compound 12d, 4-(3-((2,6-Difluorobenzyl)carbamoyl)-4-fluorophenyl)-N-(1H-indazol-5-yl)-6-methyl-2-oxo-1,2,3,4-tetrahydropyrimidine-5-carboxamide] | > 100 µM | potency at stimulating cardiomyocyte contraction [1]: equivalent to or slightly more potent than the lead 2
4 | COc1ccccc1CNC(=O)c1cc(C2NC(=O)NC(C)=C2C(=O)Nc2ccc3[nH]ncc3c2)ccc1F (stereo not shown) [Compound 12e, 4-(4-Fluoro-3-((2-methoxybenzyl)carbamoyl)phenyl)-N-(1H-indazol-5-yl)-6-methyl-2-oxo-1,2,3,4-tetrahydropyrimidine-5-carboxamide] | > 100 µM | 
5 | CC1=C(C(=O)Nc2ccc3[nH]ncc3c2)C(c2ccc(F)c(C(=O)NCc3ncccc3C)c2)NC(=O)N1 (stereo not shown) [Compound 12q, 4-(4-Fluoro-3-(((3-methylpyridin-2-yl)methyl)carbamoyl)phenyl)-N-(1H-indazol-5-yl)-6-methyl-2-oxo-1,2,3,4-tetrahydropyrimidine-5-carboxamide] | > 100 µM | 
6 | CC1=C(C(=O)Nc2ccc3[nH]ncc3c2)C(c2ccc(F)c(C(=O)NCc3c(C)cccc3C)c2)NC(=O)N1 (stereo not shown) [Compound 12m, 4-(3-((2,6-Dimethylbenzyl)carbamoyl)-4-fluorophenyl)-N-(1H-indazol-5-yl)-6-methyl-2-oxo-1,2,3,4-tetrahydropyrimidine-5 carboxamide] | > 100 µM | potency at stimulating cardiomyocyte contraction [1]: equivalent to or slightly more potent than the lead 2
7 | CNC(=O)c1cc(C2NC(=O)NC(C)=C2C(=O)Nc2ccc3[nH]ncc3c2)ccc1F (stereo not shown) [Compound 12a, 4-(4-Fluoro-3-(methylcarbamoyl)phenyl)-N-(1H-indazol-5-yl)-6-methyl-2-oxo-1,2,3,4-tetrahydropyrimidine-5-carboxamide] | > 100 µM | loss in potency against GRK2 relative to 2 (GRK2): 5 fold
8 | CC1=C(C(=O)Nc2ccc3[nH]ncc3c2)C(c2ccc(F)cc2)NC(=O)N1 (stereo not shown) [Compound 2, GSK180736A, reference compound] |  | concentration showing similar efficacy as paroxetine (10 μM) on contractility ([1]; isoproterenol 0.5 μM, 10 min pretreatment): 1 µM
9 | COc1cccc(CNC(=O)c2cc(C3NC(=O)NC(C)=C3C(=O)Nc3ccc4[nH]ncc4c3)ccc2F)c1 (stereo not shown) [Compound 12f, 4-(4-Fluoro-3-((3-methoxybenzyl)carbamoyl)phenyl)-N-(1H-indazol-5-yl)-6-methyl-2-oxo-1,2,3,4-tetrahydropyrimidine-5-carboxamide] | > 100 µM | 
10 | CC1=C(C(=O)Nc2ccc3[nH]ncc3c2)C(c2ccc(F)c(C(=O)NCc3ccccn3)c2)NC(=O)N1 (stereo not shown) [Compound 12h, 4-(4-Fluoro-3-((pyridin-2-ylmethyl)carbamoyl)phenyl)-N-(1H-indazol-5-yl)-6-methyl-2-oxo-1,2,3,4-tetrahydropyrimidine-5-carboxamide] | > 100 µM | IC50 (ROCK1): ~0.01 µM; increase in potency for ROCK1 over 2 (ROCK1): 10 fold
11 | CC1=C(C(=O)Nc2ccc3[nH]ncc3c2)C(c2ccc(F)c(C(=O)NCCc3ccncc3)c2)NC(=O)N1 (stereo not shown) [Compound 12j, 4-(4-Fluoro-3-((2-(pyridin-4-yl)ethyl)carbamoyl)phenyl)-N-(1H-indazol-5-yl)-6-methyl-2-oxo-1,2,3,4-tetrahydropyrimidine-5-carboxamide] | > 100 µM | 
12 | CC1=C(C(=O)N(C)c2ccc3[nH]ncc3c2)C(c2ccc(F)c(C(=O)NCc3c(C)cccc3C)c2)NC(=O)N1 (stereo not shown) [Compound 20, 4-(3-((2,6-Dimethylbenzyl)carbamoyl)-4-fluorophenyl)-N-(1H-indazol-5-yl)-N,6-dimethyl-2-oxo-1,2,3,4-tetrahydropyrimidine-5-carboxamide] | > 100 µM | decrease in potency at GRK2 compared to 12m (GRK2): ~70 fold
13 | CC1=C(C(=O)Nc2ccc3[nH]ncc3c2)C(c2ccc(F)c(C(=O)O)c2)NC(=O)N1 (stereo not shown) [Compound 10, 5-(5-((1H-Indazol-5-yl)carbamoyl)-6-methyl-2-oxo-1,2,3,4-tetrahydropyrimidin-4-yl)-2-fluorobenzoic acid] |  | loss in potency against GRK2 relative to 2 (GRK2): 20 fold; loss in potency against PKA relative to 2 (PKA): 2 fold
14 | CC1=C(C(=O)Nc2ccc3[nH]ncc3c2)C(c2ccc(F)c(C(=O)NCc3cccc(F)c3)c2)NC(=O)N1 (stereo not shown) [Compound 12c, 4-(4-Fluoro-3-((3-fluorobenzyl)carbamoyl)phenyl)-N-(1H-indazol-5-yl)-6-methyl-2-oxo-1,2,3,4-tetrahydropyrimidine-5-carboxamide] | > 100 µM | 
15 | CC1=C(C(=O)Nc2ccc3c(c2)OCO3)C(c2ccc(F)c(C(=O)NCc3ccccn3)c2)NC(=O)N1 (stereo not shown) [Compound 24, N-(Benzo[d][1,3]dioxol-5-yl)-4-(4-fluoro-3-((pyridin-2-ylmethyl)carbamoyl)phenyl)-6-methyl-2-oxo-1,2,3,4-tetrahydropyrimidine-5-carboxamide] | > 100 µM | kinase inhibition (GRK2; GRK2, GRK1, GRK5, PKA (Table 2)): completely inactive
16 | CC1=C(C(=O)Nc2ccc3[nH]ncc3c2)C(c2ccc(F)c(C(=O)NCc3c(C(F)(F)F)cccc3C(F)(F)F)c2)NC(=O)N1 (stereo not shown) [Compound 12o, 4-(3-((2,6-Bis(trifluoromethyl)benzyl)carbamoyl)-4-fluorophenyl)-N-(1H-indazol-5-yl)-6-methyl-2-oxo-1,2,3,4-tetrahydropyrimidine-5-carboxamide] | > 100 µM | 
17 | CC1=C(C(=O)Nc2ccc3[nH]ncc3c2)C(c2ccc(F)c(C(=O)NCc3cc(C(F)(F)F)cc(C(F)(F)F)c3)c2)NC(=O)N1 (stereo not shown) [Compound 12p, 4-(3-((3,5-Bis(trifluoromethyl)benzyl)carbamoyl)-4-fluorophenyl)-N-(1H-indazol-5-yl)-6-methyl-2-oxo-1,2,3,4-tetrahydropyrimidine-5-carboxamide] | > 100 µM | 
18 | CC1=C(C(=O)Nc2ccc3[nH]ncc3c2)C(c2ccc(F)c(C(=O)NCc3ccccc3)c2)NC(=O)N1 (stereo not shown) [Compound 12b, 4-(3-(Benzylcarbamoyl)-4-fluorophenyl)-N-(1H-indazol-5-yl)-6-methyl-2-oxo-1,2,3,4-tetrahydropyrimidine-5-carboxamide] | > 100 µM | 
19 | COc1cccc(OC)c1CNC(=O)Cc1cc(C2NC(=O)NC(C)=C2C(=O)Nc2ccc3[nH]ncc3c2)ccc1F (stereo not shown) [Compound 13c, 4-(3-(2-((2,6-Dimethoxybenzyl)amino)-2-oxoethyl)-4-fluorophenyl)-N-(1H-indazol-5-yl)-6-methyl-2-oxo-1,2,3,4-tetrahydropyrimidine-5-carboxamide] | > 100 µM | 
20 | COc1ccc(CNC(=O)c2cc(C3NC(=O)NC(C)=C3C(=O)Nc3ccc4[nH]ncc4c3)ccc2F)cc1 (stereo not shown) [Compound 12g, 4-(4-Fluoro-3-((4-methoxybenzyl)carbamoyl)phenyl)-N-(1H-indazol-5-yl)-6-methyl-2-oxo-1,2,3,4-tetrahydropyrimidine-5-carboxamide] | > 100 µM | 
21 | CC1=C(C(=O)Nc2ccc3[nH]ncc3c2)C(c2ccc(F)c(C(=O)NCCc3c(C)cccc3C)c2)NC(=O)N1 (stereo not shown) [Compound 12r, 4-(3-((2,6-Dimethylphenethyl)carbamoyl)-4-fluorophenyl)-N-(1H-indazol-5-yl)-6-methyl-2-oxo-1,2,3,4-tetrahydropyrimidine-5-carboxamide] | > 100 µM | 
22 | CC1=C(C(=O)Nc2ccc3[nH]ncc3c2)C(c2ccc(F)c(C(=O)NCCc3ccccn3)c2)NC(=O)N1 (stereo not shown) [Compound 12i, 4-(4-Fluoro-3-((2-(pyridin-2-yl)ethyl)carbamoyl)phenyl)-N-(1H-indazol-5-yl)-6-methyl-2-oxo-1,2,3,4-tetrahydropyrimidine-5-carboxamide] | > 100 µM | 
23 | Fc1ccc([C@@H]2CCNC[C@H]2COc2ccc3c(c2)OCO3)cc1 [Paroxetine, paroxetine, reference compound] | > 100 µM | 

— PMC4890168 (Journal of medicinal chemistry, 2016)
